From patent publication US20040248765A1, “Tumour targeting prodrugs activated by metallo matrixproteinases” (priority 2001, published 2004)
Where a SMILES comes first, the peptide text is derived from it. [ ]: non-standard residue; d: D form. The star is where a group is joined. NH(CH2)3NH(1-anthraquinonyl) = O=C1c2ccccc2C(=O)c2c(NCCCN*)cccc21

Legend:
[1] = In vitro tumour incubations: metabolism by dilute HT1080 tumour homogenate (HPLC); assay type: in vitro ADME; details: dilute HT1080 tumour homogenate (1:500)
Method: Separation was achieved using gradient reversed phase HPLC On a Lichrospher (25×4 mm) column.
Mobile phase A consisted of 10% acetonitrile: 90% TFA (0.05%) and mobile phase B of 60% acetonitrile: 40% TFA (0.05%). Optimum detection was at the λmax of 248 nm using a flow rate of 1.2 ml/min. The gradient profile was from 60% A to 5% A over 25 min.
Sample preparation for HPLC was by simple protein precipitation. 3 vols. of methanol were added to 1 vol. of sample (typically 100 μl) which was centrifuged at 3000 g for 5 min. The supernatant was injected directly onto the HPLC column.
In Vitro Tumour Incubations
Solid tumour (HTT1080—excised from NCI-Nu mice under a Home Office Licence) was homogenised (1:4) in MMP buffer. Tumour homogenates were incubated at 25° C. and compounds (drugs) were added to the homogenate to give a final concentration of 10 μM or 100 μM. Samples were taken at timed intervals and prepared for HPLC analysis as described above.
Where metabolism was so rapid tumour homogenates required dilution (to 1:500) before analysis.

[2] = system: MAC15A adenocarcinoma of the colon; experiment: In vitro cytotoxicity against MAC15A adenocarcinoma of the colon, 96 hours exposure; assay type: cell-based; details: Mus musculus, 96 h
human recombinant MMP-9 = molecular target: T1, human recombinant MMP-9 (Homo sapiens, UniProt P14780); experiment: In vitro enzyme incubation with recombinant MMP-9 (HPLC, MS/MS); assay type: biochemical; details: HPLC and MS/MS
T1 construct: purchased Calbiochem (Calbiochem-Novabiochem Ltd, Nottingham, UK)
Method: In vitro Enzyme Incubations
Compounds were incubated in vitro with purified recombinant enzyme (either MMP-9 or MMP-2) (Calbiochem, Nottingham, UK). Typically, compounds (drugs) were incubated at 5 μM concentrations using 10 μl of enzyme, 10μl of drug and 90 μl of buffer at 25° C. The buffer used consisted of 200 mM NaCl, 50 mM Tris, 5 mM CaCl2, 20 μM ZnSO4 and 0.05% Brij35 at pH 7.6.
At various time points 20 μl samples were taken and 60 μl of methanol added to precipitate proteins as described above and the metabolism of the compounds was analysed by HPLC (as above).

calf thymus DNA [3] = experiment: Fluorescence quenching, Hoechst Dye 33258 displacement from calf thymus DNA; assay type: binding
MAC15A = experiment: In vitro cytotoxicity, MAC15A, 1 hour exposure; assay type: cell-based; details: for % cells remaining: 1 × 10^4 cells/ml
topo I = molecular target: T2, topo I (Homo sapiens, UniProt P11387); experiment: Inhibition of topo I-mediated relaxation of pBR322 DNA; assay type: biochemical; details: tested between 1-100 μM
T2 sequence (P11387 1-765): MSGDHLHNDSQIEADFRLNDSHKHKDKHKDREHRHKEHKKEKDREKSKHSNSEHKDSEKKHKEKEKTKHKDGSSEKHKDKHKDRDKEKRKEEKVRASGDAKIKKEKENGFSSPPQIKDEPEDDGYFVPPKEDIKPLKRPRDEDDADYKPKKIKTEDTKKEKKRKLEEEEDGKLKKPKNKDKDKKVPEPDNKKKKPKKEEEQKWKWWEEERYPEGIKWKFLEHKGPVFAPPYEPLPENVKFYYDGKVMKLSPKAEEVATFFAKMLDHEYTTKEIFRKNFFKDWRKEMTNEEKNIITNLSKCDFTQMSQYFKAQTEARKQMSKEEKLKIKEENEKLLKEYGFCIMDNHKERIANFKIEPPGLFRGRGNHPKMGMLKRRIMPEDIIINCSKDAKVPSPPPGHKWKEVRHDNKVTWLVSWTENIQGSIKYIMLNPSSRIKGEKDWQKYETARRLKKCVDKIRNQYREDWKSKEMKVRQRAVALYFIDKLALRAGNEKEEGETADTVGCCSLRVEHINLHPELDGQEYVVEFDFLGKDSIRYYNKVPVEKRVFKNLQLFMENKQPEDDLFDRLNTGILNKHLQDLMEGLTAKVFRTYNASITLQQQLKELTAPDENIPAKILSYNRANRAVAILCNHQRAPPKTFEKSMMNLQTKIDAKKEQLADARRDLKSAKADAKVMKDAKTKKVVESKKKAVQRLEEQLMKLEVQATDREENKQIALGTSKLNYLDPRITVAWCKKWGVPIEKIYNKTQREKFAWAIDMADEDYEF
Method: Neither example (8) [NU:UB187] (heptapeptide) nor its hexa-, penta-, or tetra-peptide metabolites {examples (7) [NU:UB 205], (6) [NU:UB 204] and (5) [NU:UB 186] respectively} inhibited the topo I- mediated relaxation of pBR322 DNA at concentrations up to 100 μM. […] (the preferred MMP-2 cleavage product of example (8) [NU:UB187] The topo I activities of example (2) [NU:UB 31] and example (1b) [NU:UB 197] bad previously been determined [Table 1].

calf thymus DNA [4] = experiment: Fluorescence quenching, Ethidium Bromide displacement from calf thymus DNA; assay type: binding

T1 sequence (P14780 94-707): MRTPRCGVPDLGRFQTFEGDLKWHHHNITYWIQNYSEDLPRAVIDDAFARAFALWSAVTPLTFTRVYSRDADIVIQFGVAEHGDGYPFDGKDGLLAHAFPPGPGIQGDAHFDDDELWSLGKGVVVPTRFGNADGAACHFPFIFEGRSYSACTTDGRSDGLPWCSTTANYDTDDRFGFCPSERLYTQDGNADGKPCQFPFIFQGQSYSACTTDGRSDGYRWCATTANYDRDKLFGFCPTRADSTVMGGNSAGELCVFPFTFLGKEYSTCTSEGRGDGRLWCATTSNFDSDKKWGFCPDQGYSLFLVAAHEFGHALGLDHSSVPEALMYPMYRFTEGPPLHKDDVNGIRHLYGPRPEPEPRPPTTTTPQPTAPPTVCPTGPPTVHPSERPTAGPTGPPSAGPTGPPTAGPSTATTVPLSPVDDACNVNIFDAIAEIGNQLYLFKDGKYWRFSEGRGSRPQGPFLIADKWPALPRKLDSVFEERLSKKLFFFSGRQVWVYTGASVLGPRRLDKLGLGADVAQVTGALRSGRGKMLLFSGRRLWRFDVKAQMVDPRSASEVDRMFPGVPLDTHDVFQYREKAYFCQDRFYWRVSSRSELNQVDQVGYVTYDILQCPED

SMILES: CC(C)C[C@H](NC(=O)[C@H](C)NC(=O)[C@H](C)NC(=O)[C@@H](C)N)C(=O)NCC(=O)N[C@@H](CC(C)C)C(=O)N1CCC[C@H]1C(=O)NCCCNc1cccc2c1C(=O)c1ccccc1C2=O.O=C(O)C(F)(F)F [Example 8, 1-[3-(D-Alanyl-L-alanyl-L-alanyl-L-leucyl-glycyl-L-leucyl-L-prolylamino)-propylamino]anthraquinone trifluoroacetate] (H-[dA]AALGLP-{NH(CH2)3NH(1-anthraquinonyl)})
- major products / metabolite [1]: the cleavage product Example 4 and the anthraquinone Example 1a
- rate of metabolism [1]: 1.75 μmol/min/g tissue
- melting point: 166 °C
- IC50 [2]: 36 µM
- cleavage product with MMP-9 (human recombinant MMP-9): cleavage to anthraquinonyl, spacer-linked tripeptide Example 4
- QH50 (Hoechst Dye 33258 displacement) (calf thymus DNA [3]; calf thymus DNA): 4 µM
- groove binding to DNA (calf thymus DNA [3]; in comparison to example (2) NU:UB 31): weak groove binding agent
- % cells remaining (MAC15A; 1 μM): 100%
- % cells remaining (MAC15A; 10 μM): 100%
- % cells remaining (MAC15A; 100 μM): 95%
- IC50 (MAC15A; Mus musculus): > 100 µM
- LEVEL OF INHIBITION of topo I-mediated relaxation pBR322 DNA (topo I): No inhibition of relaxation between 1-100 μM
- QE50 (Ethidium Bromide displacement) (calf thymus DNA [4]; calf thymus DNA): 17 µM
- intercalation into DNA (calf thymus DNA [4]; refers to Table 3): not to intercalate into DNA
